Test results: ChEMBL document CHEMBL1140538, “Pyrazolo[1,5-a]pyrimidines as orally available inhibitors of cyclin-dependent kinase 2” (Bioorg Med Chem Lett, 2007)
Where “and” joins values, the source holds several entries; their conditions need not be identical. Equal values may be shown once.

Tests used:
[1] = Effect on cell proliferation assessed as radiolabeled thymidine incorporation in cell-based assay; format: functional; details: Homo sapiens
[2] = target: Glycogen synthase kinase-3 beta (Homo sapiens, UniProt P49841); assay: Inhibition of human GSK3-beta
Sequence of Glycogen synthase kinase-3 beta (P49841 whole entry): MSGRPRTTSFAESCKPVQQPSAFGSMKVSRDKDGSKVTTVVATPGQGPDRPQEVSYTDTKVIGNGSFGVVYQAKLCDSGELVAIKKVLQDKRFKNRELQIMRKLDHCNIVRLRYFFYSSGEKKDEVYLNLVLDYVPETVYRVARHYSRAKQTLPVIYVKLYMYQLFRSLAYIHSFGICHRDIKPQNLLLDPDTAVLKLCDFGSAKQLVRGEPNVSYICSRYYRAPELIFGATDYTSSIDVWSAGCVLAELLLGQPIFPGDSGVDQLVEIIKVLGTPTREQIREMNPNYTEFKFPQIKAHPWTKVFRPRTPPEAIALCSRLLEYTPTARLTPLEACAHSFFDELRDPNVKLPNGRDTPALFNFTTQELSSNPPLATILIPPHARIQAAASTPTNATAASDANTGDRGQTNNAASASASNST

[3] = Inhibition of human CDK2/cyclin A
[4] = Inhibition of human MAPK
Homo sapiens = species on record: Homo sapiens; assay: Protein binding in human; format: ADME, organism-based; details: in vivo
Mus musculus = species on record: Mus musculus; assay: Protein binding in mouse; format: ADME, organism-based; details: in vivo
Rattus norvegicus = species on record: Rattus norvegicus; assay: Protein binding in rat; format: ADME, organism-based; details: in vivo
Rhesus monkey = assay: Protein binding in monkey; format: ADME, organism-based, Macaca mulatta; details: in vivo
Canis familiaris = species on record: Canis familiaris; assay: Protein binding in dog; format: ADME, organism-based, Canis lupus familiaris; details: in vivo
[5] = AUC in rat at 10 mg/kg; format: ADME, organism-based; design: dose 10 mg/kg; details: plasma
[6] = Cmax in rat at 10 mg/kg; format: ADME, organism-based; design: dose 10 mg/kg; details: in vivo
[7] = Tmax in rat at 10 mg/kg; format: ADME, organism-based; design: dose 10 mg/kg; details: in vivo
[8] = AUC in mouse at 40 mg/kg; format: ADME, organism-based; design: dose 40 mg/kg; details: plasma
[9] = Cmax in mouse at 40 mg/kg; format: ADME, organism-based; design: dose 40 mg/kg; details: in vivo
[10] = Tmax in mouse at 40 mg/kg; format: ADME, organism-based; design: dose 40 mg/kg; details: in vivo
[11] = AUC in dog at 5 mg/kg; format: ADME, organism-based, Canis lupus familiaris; design: dose 5 mg/kg; details: plasma
[12] = Cmax in dog at 5 mg/kg, po; format: ADME, organism-based, Canis lupus familiaris; design: dose 5 mg/kg, route oral; details: in vivo
[13] = AUC in monkey at 10 mg/kg; format: ADME, organism-based, Macaca mulatta; design: dose 10 mg/kg; details: rhesus monkey, plasma
[14] = Cmax in monkey at 10 mg/kg; format: ADME, organism-based, Macaca mulatta; design: dose 10 mg/kg; details: rhesus monkey, in vivo
[15] = Tmax in monkey at 10 mg/kg; format: ADME, organism-based, Macaca mulatta; design: dose 10 mg/kg; details: rhesus monkey, in vivo
A2780 = assay: Antitumor activity against A2780 cells xenografted in mouse at 40 mg/kg, po QD for 10 days; format: functional; details: A2780, 240 h

Row | IC50 [2] [nM] | IC50 [3] | Compound | IC50 [1] [nM] | further results
1 | 1100 | 49 nM | N#CCc1cnn2c(NCc3cccnc3)cc(-c3ccccc3)nc12 | – | IC50 [4]: 1330 nM
2 | – | 34000 nM | CN(C)Cc1cnn2c(NCc3cccnc3)cc(-c3ccccc3)nc12 | – | –
3 | – | 890 nM | CCCc1cnn2c(NCc3cccnc3)cc(-c3ccccc3)nc12 | – | –
4 | – | 95 nM | FC(F)(F)c1cnn2c(NCc3cccnc3)cc(-c3ccccc3)nc12 | – | –
5 | – | > 50000 nM | CC(=O)c1cnn2c(NCc3cccnc3)cc(-c3ccccc3)nc12 | – | –
6 | 34 | 2 nM | CC(=O)NCCSc1cnn2c(NCc3cccnc3)cc(-c3ccccc3)nc12 | – | IC50 [4]: 12000 nM
7 | – | 90 nM | C=Cc1cnn2c(NCc3cccnc3)cc(-c3ccccc3)nc12 | – | –
8 | – | > 50000 nM | O=[N+]([O-])c1cnn2c(NCc3cccnc3)cc(-c3ccccc3)nc12 | – | –
9 | 1800 | 7 nM | CSc1cnn2c(NCc3cccnc3)cc(-c3ccccc3)nc12 | – | IC50 [4]: 900 nM
10 | 2800 | 8 nM | CCc1cnn2c(NCc3cccnc3)cc(-c3ccccc3)nc12 | – | IC50 [4]: 2000 nM
11 | – | 2170 nM | OCc1cnn2c(NCc3cccnc3)cc(-c3ccccc3)nc12 | – | –
12 | – | 30 nM | OCCSc1cnn2c(NCc3cccnc3)cc(-c3ccccc3)nc12 | – | –
13 | – | 71 nM | c1ccc(-c2cc(NCc3cccnc3)n3ncc(C4CC4)c3n2)cc1 | – | –
14 | – | 250 nM | c1ccc(-c2cc(NCc3cccnc3)n3nccc3n2)cc1 | – | –
15 | – | 710 nM | FC(F)(F)Cc1cnn2c(NCc3cccnc3)cc(-c3ccccc3)nc12 | – | –
16 | – | 840 nM | C#CCc1cnn2c(NCc3cccnc3)cc(-c3ccccc3)nc12 | – | –
17 | 9820 | 48 nM | C#Cc1cnn2c(NCc3cccnc3)cc(-c3ccccc3)nc12 | – | IC50 [4]: 7480 nM
18 | – | 370 nM | CC(C)c1cnn2c(NCc3cccnc3)cc(-c3ccccc3)nc12 | – | –
19 | – | 3400 nM | OC(c1cnn2c(NCc3cccnc3)cc(-c3ccccc3)nc12)C(F)(F)F (stereo unspecified) | – | –
20 | 570 | 11 nM | Brc1cnn2c(NCc3cccnc3)cc(-c3ccccc3)nc12 | – | IC50 [4]: 370 nM
21 | – | 72 nM | Cc1cnn2c(NCc3cccnc3)cc(-c3ccccc3)nc12 | – | IC50 [4]: 1400 nM
22 | – | 1200 nM | CCCCc1cnn2c(NCc3cccnc3)cc(-c3ccccc3)nc12 | – | –
23 | – | 1100 nM | COc1cnn2c(NCc3cccnc3)cc(-c3ccccc3)nc12 | – | –
24 | – | > 50000 nM | c1ccc(-c2cc(NCc3cccnc3)n3ncc(-c4ccccc4)c3n2)cc1 | – | –

Continued, molecule first:

Row | Compound | IC50 [2] [nM] | IC50 [3] | IC50 [1] [nM] | further results
25 | CC(O)c1cc(NCc2cccnc2)n2ncc(Br)c2n1 (stereo unspecified) | 500 | 38 nM | 1400 | –
26 | CNc1cc(-c2ccccc2Cl)nc2c(Br)cnn12 | 247 | 20 nM | 1800 | –
27 | Brc1cnn2c(NCc3cccnc3)cc(-c3ccco3)nc12 | 310 | 8 nM | 15200 | –
28 | Cc1cc(NCc2cccnc2)n2ncc(Br)c2n1 | 3530 | 60 nM | 1800 | –
29 | Brc1cnn2c(NCc3cccnc3)cc(N3CCNCC3)nc12 | – | 210 nM | – | –
30 | Clc1ccccc1-c1cc(NCc2cccnc2)n2ncc(Br)c2n1 | 54 | 4 nM and 3 nM | 500 | –
31 | Brc1cnn2c(NCc3cccnc3)cc(C3CCCNC3)nc12 (stereo unspecified) | 180 | 8 nM | 60 | –
32 | CS(=O)(=O)c1ccc(Nc2cc(-c3ccccc3Cl)nc3c(Br)cnn23)cc1 | 450 | 350 nM | 900 | –
33 | CNc1cc(NCc2cccnc2)n2ncc(Br)c2n1 | 4600 | 43 nM | 1200 | –
34 | Fc1ccccc1-c1cc(NCOc2cccnc2)n2ncc(Br)c2n1 | 130 | 13 nM | 210 | Activity (Homo sapiens): 95%; Activity (Mus musculus): 90%; Activity (Rattus norvegicus): 85%; Activity (Rhesus monkey): 89%; Activity (Canis familiaris): 93%; AUC [5]: 16.4 µM·h; Cmax [6]: 2290 nM; Tmax [7]: 2 h; AUC [8]: 17.9 µM·h; Cmax [9]: 6810 nM; Tmax [10]: 2 h; AUC [11]: 2.44 µM·h; Cmax [12]: 2580 nM; AUC [13]: 43 µM·h; Cmax [14]: 3200 nM; Tmax [15]: 3.3 h; inhibition in vivo at 40 mg/kg (A2780): 96%
35 | Clc1cccc(-c2cc(NCc3ccncc3)n3nccc3n2)c1Cl | – | 500 nM | – | –
36 | Fc1ccccc1-c1cc(NCc2ccccc2)n2ncc(Br)c2n1 | 15200 | 300 nM | – | –
37 | CCOC(=O)c1cc(NCc2cccnc2)n2ncc(Br)c2n1 | 790 | 89 nM | 2900 | –
38 | Clc1ccccc1-c1cc(NCOc2cccnc2)n2ncc(Br)c2n1 | 35 | 11 nM | 170 | –
39 | CC(C)c1cc(NCc2cccnc2)n2ncc(Br)c2n1 | 420 | 17 nM | 950 | –
40 | COc1cc(NCc2cccnc2)n2ncc(Br)c2n1 | 1410 | 35 nM | 2000 | –
41 | Brc1cnn2c(NCc3cccnc3)cc(C3CC3)nc12 | 1130 | 45 nM | 1500 | –
42 | CCc1cc(NCc2cccnc2)n2ncc(Br)c2n1 | 920 | 18 nM | 520 | –
43 | c1ccc(Cc2cnn3c(NCc4cccnc4)cc(-c4ccccc4)nc23)cc1 | – | 16000 nM | – | –
44 | Brc1cnn2c(NCOc3cccnc3)cc(-c3ccccc3)nc12 | 600 | 34 nM | 140 | –
45 | CCCNc1cc(-c2ccccc2Cl)nc2c(Br)cnn12 | – | 163 nM | – | –
46 | CSc1cc(NCc2cccnc2)n2ncc(Br)c2n1 | 1180 | 38 nM | 990 | –
47 | Brc1cnn2c(NCc3cccnc3)cc(C3CCNCC3)nc12 | 410 | 16 nM | 160 | –
48 | CC(Nc1cc(-c2ccccc2)nc2c(Br)cnn12)c1cccnc1 (stereo unspecified) | – | 3000 nM | – | –
49 | Nc1cc(-c2ccccc2)nc2c(Br)cnn12 | – | 250 nM | – | –
50 | Fc1ccccc1-c1cc(Nc2ccccc2)n2ncc(Br)c2n1 | 13300 | 408 nM | – | –
51 | Clc1ccccc1-c1cc(NC2CC2)n2ncc(Br)c2n1 | – | 825 nM | – | –
52 | Brc1cnn2c(NCc3cccnc3)cc(C3CCCCC3)nc12 | 27 | 4 nM | 200 | –
53 | Brc1cnn2c(NCc3cccnc3)cc(-c3cccs3)nc12 | 480 | 13 nM | 750 | –
54 | Cc1ccccc1-c1cc(NCc2ccc[n+]([O-])c2)n2ncc(Br)c2n1 | – | 49 nM | – | –
